Assay results published in ChEMBL document CHEMBL5360613, “Unveiling New KRASG12D Inhibitors: A Promising Approach for Pancreatic Cancer Therapy” (ACS Med Chem Lett, 2023).

target: GTPase KRas (Homo sapiens, UniProt P01116, G12D); experiment: Inhibition of KRAS G12D mutant in human PANC-1 cells assessed as reduction in phosphorylation of ERK 1/2 level incubated for 3 hrs; type: cell-based
Sequence (P01116 whole entry G12D): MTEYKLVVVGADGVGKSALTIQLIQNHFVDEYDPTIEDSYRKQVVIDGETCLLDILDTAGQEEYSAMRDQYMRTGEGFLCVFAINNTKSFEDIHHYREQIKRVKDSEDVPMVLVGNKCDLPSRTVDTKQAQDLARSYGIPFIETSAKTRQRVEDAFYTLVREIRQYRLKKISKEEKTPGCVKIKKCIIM

First: C#Cc1cccc2cc(O)cc(-c3ncc4c(N5C[C@H]6CC[C@@H](C5)N6)cc(OC[C@@]56CCCN5C[C@H](F)C6)nc4c3F)c12
Second: Oc1cc(-c2ncc3c(N4C[C@H]5CC[C@@H](C4)N5)cc(OC[C@@]45CCCN4C[C@H](F)C5)nc3c2F)c2c(F)cccc2c1
The IC50 of the first is 4.2-fold lower: 9.5 nM for the first, 40 nM for the second.

Going from `CCc1c(F)ccc2cc(O)cc(-c3ncc4c(N5C[C@H]6CC[C@@H](C5)N6)cc(OC[C@@]56CCCN5C[C@H](F)C6)nc4c3F)c12` to `C#Cc1c(F)ccc2cc(O)cc(-c3ncc4c(N5C[C@H]6CC[C@@H](C5)N6)cc(OC[C@@]56CCCN5C[C@H](F)C6)nc4c3F)c12`, the IC50 falls from 46 nM to 7.9 nM (5.8-fold).

Compared with `C#Cc1c(F)ccc2cc(O)cc(-c3ncc4c(N5CC6CCC(C)(C5)N6)cc(OC[C@@]56CCCN5C[C@H](F)C6)nc4c3F)c12` (stereo partly drawn), `C#Cc1c(F)ccc2cc(O)cc(-c3ncc4c(N5C[C@H]6CC[C@@H](C5)N6)cc(C#C[C@@]56CCCN5C[C@H](F)C6)nc4c3F)c12` is 18-fold higher in IC50: 24 nM for the first, 439 nM for the second.

Going from `Oc1cc(N2CCc3c(nc(OCC45CCCN4CCC5)nc3N3C[C@H]4CC[C@@H](C3)N4)C2)c2c(Cl)cccc2c1` to `CCc1c(F)ccc2cc(O)cc(-c3ncc4c(N5C[C@H]6CC[C@@H](C5)N6)cc(C#C[C@@]56CCCN5C[C@H](F)C6)nc4c3F)c12`, the IC50 rises from 15 nM to 305 nM (20-fold).
